Experimental data: DBAASP
In brackets after ≈: the same amount, converted by molar mass.

Columns and labels:
Assay in all cases: ≥ marks a high value that may be exact or a test limit, other limits are often not marked, values filed in µg/mL are converted to µM
[1] = system: Pseudomonas aeruginosa 2
[2] = system: Candida albicans ATCC 90028
[3] = system: Trichophyton rubrum KCTC 6345
[4] = system: Enterococcus faecium ATCC 19434
[5] = system: Staphylococcus aureus ATCC 25923
[6] = system: Pseudomonas aeruginosa ATCC 27853
[7] = system: Staphylococcus aureus
[8] = system: Salmonella typhimurium ATCC 19430
[9] = system: Pseudomonas aeruginosa 1
[10] = system: Escherichia coli O157:H7 ATCC 43895
[11] = system: Candida parapsilosis ATCC 22019
[12] = system: Trichosporon beigelii KCTC 7707
[13] = system: Enterococcus faecalis ATCC 29212
[14] = system: Escherichia coli ATCC 32218
[15] = system: Staphylococcus aureus ATCC 29213
[16] = system: Pseudomonas aeruginosa ATCC 9027
[17] = system: Pseudomonas aeruginosa AB93066
[18] = system: Staphylococcus aureus P1374
[19] = system: Staphylococcus aureus P1381
[20] = system: Staphylococcus aureus ATCC 6538
[21] = system: Escherichia coli AB94012
[22] = system: Staphylococcus aureus AB94004
[23] = system: Escherichia coli ATCC 25922
[24] = system: Escherichia coli
[25] = system: Streptococcus iniae
[26] = system: Miamiensis avidus
[27] = system: Saccharomyces cerevisiae KCCM 11293
[28] = system: Vibrio tapetis KCTC 12728
[29] = system: Edwardsiella tarda
[30] = system: Candida albicans KCCM 11282
[31] = system: Trichophyton mentagrophytes
[32] = system: Escherichia coli ATCC 8739
[33] = system: Trichophyton rubrum
[34] = system: Pseudomonas aeruginosa ATCC 15422
[35] = system: Bacillus subtilis CCT 2576
[36] = system: Klebsiella pneumoniae ATCC 13883
[37] = system: Klebsiella pneumoniae ATCC 700603
[38] = system: Enterococcus faecium ATCC 700221
[39] = system: Klebsiella aerogenes ATCC 13048
[40] = system: Acinetobacter baumannii ATCC BAA-1605
[41] = system: Staphylococcus aureus ATCC 33591
[42] = system: Staphylococcus aureus ATCC 12598
[43] = system: Acinetobacter baumannii ATCC 19606
[44] = system: Staphylococcus aureus ATCC 9144
[45] = system: Staphylococcus epidermidis ATCC 12228

**Q.** With CC[C@H](C)[C@H](NC(=O)[C@H](CCCN=C(N)N)NC(=O)CNC(=O)[C@@H](NC(=O)[C@@H]1CCCN1C(=O)[C@H](Cc1ccccc1)NC(=O)[C@H](CCC(N)=O)NC(=O)[C@H](CC(C)C)NC(=O)CNC(=O)[C@H](C)N)C(C)C)C(=O)NCC(=O)N[C@@H](CCCN=C(N)N)C(=O)N[C@@H](CC(C)C)C(=O)N[C@@H](CC(C)C)C(=O)N[C@@H](CCCN=C(N)N)C(=O)N[C@@H](CCCCN)C(=O)O [AGLQFPVGRIGRLLRK] as the compound, how does the MIC [1] read?
**A.** The MIC was 12.5 µM (≈ 22.3 µg/mL).

**Q.** What about the MIC [2] of the same compound?
**A.** Its MIC is 6.3 µM (≈ 11.2 µg/mL).

**Q.** What about the MIC [3] of the same compound?
**A.** Its MIC is 6.3 µM (≈ 11.2 µg/mL).

**Q.** What about the MIC [4] of the same compound?
**A.** Its MIC is 12.5 µM (≈ 22.3 µg/mL).

**Q.** And the MIC [5]?
**A.** The MIC was 25 µM (≈ 44.5 µg/mL).

**Q.** What about the MIC [6] of the same compound?
**A.** Its MIC is 12.5 µM (≈ 22.3 µg/mL).

**Q.** What about the MIC [7] of the same compound?
**A.** The MIC was 12.5 µM (≈ 22.3 µg/mL).

**Q.** And the MIC [8]?
**A.** Its MIC is 12.5 µM (≈ 22.3 µg/mL).

**Q.** And the MIC [9]?
**A.** The MIC was 6.3 µM (≈ 11.2 µg/mL).

**Q.** And the MIC [10]?
**A.** Its MIC is 6.3 µM (≈ 11.2 µg/mL).

**Q.** What about the MIC [11] of the same compound?
**A.** The MIC was 12.5 µM (≈ 22.3 µg/mL).

**Q.** What about the MIC [12] of the same compound?
**A.** Its MIC is 6.3 µM (≈ 11.2 µg/mL).

**Q.** Which MIC [13] does the source give for CC(C)C[C@H](NC(=O)[C@H](C)N)C(=O)N[C@@H](CCCCN)C(=O)N[C@@H](Cc1ccc(O)cc1)C(=O)N[C@@H](CCCN=C(N)N)C(=O)N[C@@H](CC(C)C)C(=O)N[C@@H](Cc1ccccc1)C(=O)N[C@@H](CCCCN)C(=O)N[C@@H](CCCCN)C(=O)N[C@@H](CC(C)C)C(=O)N[C@@H](CCCCN)C(=O)N[C@@H](CCCCN)C(=O)N[C@@H](Cc1ccccc1)C(=O)O [ALKYRLFKKLKKF] here?
**A.** Its MIC is 1.19 µM (≈ 2 µg/mL).

**Q.** What about the MIC [14] of the same compound?
**A.** Its MIC is ≥ 35.6 µM.

**Q.** And the MIC [15]?
**A.** The MIC was 0.594 µM (≈ 1 µg/mL).

**Q.** Which results are given for CC[C@H](C)[C@H](NC(=O)[C@H](CO)NC(=O)[C@H](CCCCN)NC(=O)[C@@H](NC(=O)CNC(=O)[C@H](CCCCN)NC(=O)[C@H](Cc1c[nH]c2ccccc12)NC(=O)[C@H](CC(C)C)NC(=O)[C@H](CCCCN)NC(=O)CNC(=O)[C@H](CC(C)C)NC(=O)[C@@H](NC(=O)[C@@H](N)Cc1ccccc1)[C@@H](C)CC)C(C)C)C(=O)N[C@@H](Cc1ccccc1)C(N)=O [FILGKLWKGVKSIF]?
**A.** MIC [16]: 30.6 µM (≈ 50 µg/mL); MIC [17]: 30.6 µM (≈ 50 µg/mL); MIC [18]: 7.64 µM (≈ 12.5 µg/mL); MIC [5]: 3.82 µM (≈ 6.25 µg/mL); MIC [19]: 7.64 µM (≈ 12.5 µg/mL); MIC [20]: 3.82 µM (≈ 6.25 µg/mL); MIC [21]: 15.3 µM (≈ 25 µg/mL); MIC [22]: 3.82 µM (≈ 6.25 µg/mL); MIC [23]: 30.6 µM (≈ 50 µg/mL)

**Q.** Which results are given for CC[C@H](C)[C@H](NC(=O)[C@H](C)NC(=O)[C@H](Cc1cnc[nH]1)NC(=O)CNC(=O)[C@@H](NC(=O)CNC(=O)[C@H](Cc1cnc[nH]1)NC(=O)[C@H](CC(C)C)NC(=O)[C@H](CC(C)C)NC(=O)[C@H](CCSC)NC(=O)CNC(=O)[C@H](CC(C)C)NC(=O)[C@@H](N)Cc1ccccc1)C(C)C)C(=O)N[C@@H](Cc1cnc[nH]1)C(=O)NCC(=O)N[C@@H](CC(C)C)C(=O)N[C@H](C(=O)N[C@@H](Cc1cnc[nH]1)C(=O)NCC(=O)N[C@@H](CCCCN)C(=O)N[C@@H](CCC(N)=O)C(=O)N[C@@H](CC(N)=O)C(=O)N[C@H](C(=O)N[C@@H](CCC(=O)O)C(=O)O)C(C)C)[C@@H](C)CC [FLGMLLHGVGHAIHGLIHGKQNVE]?
**A.** MIC [24]: 45 µM (≈ 116 µg/mL); MIC [25]: ≥ 45 µM; MIC [26]: 0.4 µM (≈ 1.03 µg/mL); MIC [27]: 11.2 µM (≈ 29 µg/mL); MIC [28]: 22.5 µM (≈ 58 µg/mL); MIC [29]: ≥ 90 µM; MIC [30]: 22.5 µM (≈ 58 µg/mL)

**Q.** How did the MIC [31] turn out when CSCC[C@H](NC(=O)[C@H](CO)NC(=O)[C@H](C)NC(=O)[C@H](C)NC(=O)[C@H](C)NC(=O)[C@H](C)NC(=O)[C@H](C)NC(=O)[C@H](C)NC(=O)[C@H](C)NC(=O)[C@H](CC(N)=O)NC(=O)[C@H](C)NC(=O)[C@H](C)NC(=O)[C@@H](NC(=O)[C@H](CC(C)C)NC(=O)[C@H](C)NC(=O)[C@H](C)NC(=O)[C@H](C)NC(=O)[C@H](C)NC(=O)[C@H](C)NC(=O)[C@H](C)NC(=O)[C@H](CC(=O)O)NC(=O)[C@H](CO)NC(=O)[C@H](C)NC(=O)[C@@H](NC(=O)[C@@H](N)Cc1cnc[nH]1)[C@@H](C)O)[C@@H](C)O)C(=O)N[C@@H](C)C(=O)O [HTASDAAAAAALTAANAAAAAAASMA] was run?
**A.** The MIC was ≥ 115 µM.

**Q.** What about the MIC [32] of the same compound?
**A.** The MIC was 30 µM (≈ 66.4 µg/mL).

**Q.** And the MIC [5]?
**A.** Its MIC is > 115 µM.

**Q.** What about the MIC [33] of the same compound?
**A.** Its MIC is ≥ 115 µM.

**Q.** What about the MIC [11] of the same compound?
**A.** Its MIC is ≥ 115 µM.

**Q.** Which MIC [34] does the source give for CC[C@H](C)[C@H](N)C(=O)N[C@@H](CC(N)=O)C(=O)N[C@@H](Cc1c[nH]c2ccccc12)C(=O)N[C@@H](CCCCN)C(=O)N[C@@H](CCCCN)C(=O)N[C@@H](CCSC)C(=O)N[C@@H](C)C(=O)N[C@@H](C)C(=O)N[C@H](C(=O)N[C@@H](C)C(=O)N[C@@H](CC(C)C)C(=O)N[C@@H](CCCCN)C(=O)N[C@@H](CCSC)C(=O)N[C@H](C(N)=O)[C@@H](C)CC)[C@@H](C)O [INWKKMAATALKMI] here?
**A.** Its MIC is 9.64 µM (≈ 15.6 µg/mL).

**Q.** What about the MIC [20] of the same compound?
**A.** The MIC was 1.79 µM (≈ 2.9 µg/mL).

**Q.** And the MIC [35]?
**A.** Its MIC is 2.16 µM (≈ 3.5 µg/mL).

**Q.** What about the MIC [23] of the same compound?
**A.** The MIC was 2.41 µM (≈ 3.9 µg/mL).

**Q.** Which results are given for CC[C@H](C)[C@H](NC(=O)[C@H](CCCN=C(N)N)NC(=O)[C@H](CCC(N)=O)NC(=O)[C@@H](NC(=O)[C@@H](NC(=O)[C@H](CCCN=C(N)N)NC(=O)[C@H](CCCCN)NC(C)=O)[C@@H](C)CC)C(C)C)C(=O)N[C@@H](CCCCN)C(=O)N[C@@H](CC(=O)O)C(=O)N[C@@H](Cc1ccccc1)C(=O)N[C@@H](CC(C)C)C(=O)N[C@@H](CCCN=C(N)N)C(N)=O [KRIVQRIKDFLR]?
**A.** MIC [16]: 40.7 µM (≈ 65.7 µg/mL); MIC [13]: ≥ 81.4 µM; MIC [36]: ≥ 163 µM; MIC [37]: 163 µM (≈ 263 µg/mL); MIC [38]: 10.2 µM (≈ 16.4 µg/mL); MIC [39]: ≥ 163 µM; MIC [40]: ≥ 163 µM; MIC [41]: ≥ 163 µM; MIC [42]: ≥ 163 µM; MIC [20]: 163 µM (≈ 263 µg/mL); MIC [43]: ≥ 163 µM; MIC [44]: ≥ 163 µM; MIC [45]: ≥ 163 µM
